Experimental data from US20240016884A1, “WS635 USES THEREOF IN MEDICINE” (WATERSTONE PHARMACEUTICALS (WUHAN) CO., LTD., priority 2021, published 2024).

Tests used:
[1] = tested on: anesthesia/surgery-induced delirium-like behavior in mice; experiment: Buried Food Test after anesthesia/surgery; type: in vivo
Source text: (§1) Mice Anesthesia and Surgery. 18-month-old C57BL/J6 female mice were adaptive in lab for 3 days. The mice were randomly assigned to the anesthesia/surgery group or control group by weight. […] Specifically, we anesthetized each of the mice using 1.4% isoflurane in 100% oxygen in a transparent acrylic chamber. Fifteen minutes after the induction, we moved the mouse out of the chamber. Isoflurane anesthesia was maintained via a cone device, and one 16-gauge needle was inserted into the cone near the nose of the mouse to monitor the concentration of isoflurane. We made a longitudinal midline incision from the xiphoid to the 0.5 centimeter proximal pubic symphysis on the skin, abdominal muscles and peritoneum. We then sutured the incision layer by layer with 5-0 Vicryl thread.
(§2) WS635 Treatment. WS635 was dissolved in corn oil with 10% DMSO, each of the mice will be injected with WS635 solution in the dose of 40 mg/kg for 0.2 ml through IP at 30 minutes before control condition or anesthesia/surgery by using 27G×½ needles. The mice in control group received 0.2 ml of corn oil with 10% DMSO.
(§3) Behaviors Tests. […] We will perform the behavior tests in groups of 3 mice and finished them within 50 minutes, which mimics the certain features of clinical evaluation of delirium in patients.
Buried Food Test. Specifically, two days before the test, we will give each mouse 2 pieces of the sweetened cereal. […]

cytochrome P450 2B6 = conditions: metabolic studies; cited from earlier work
cyclophilin A = cyclophilin A (Homo sapiens, UniProt P62937); conditions: cited from earlier work
hepatitis C virus (HCV) = conditions: two-drug combination, in vitro; cited from earlier work
[2] = tested on: anesthesia/surgery-induced delirium-like behavior in mice; experiment: delirium-like behaviors overall (composite Z score) after anesthesia/surgery; type: in vivo
Source text: as §1, §2
Behaviors Tests. […] We will perform the behavior tests in groups of 3 mice and finished them within 50 minutes, which mimics the certain features of clinical evaluation of delirium in patients. […]

[3] = cited from earlier work
[4] = tested on: hepatitis C virus (HCV) replication; conditions: in vitro; cited from earlier work
[5] = tested on: anesthesia/surgery-induced cognitive impairment in mice; experiment: anesthesia/surgery-induced cognitive impairment in mice; type: in vivo; conditions: 1.4% isoflurane and abdominal surgery
Source text: as §1
Mice Anesthesia for isoflurane-induced cognitive impairment experiment. 8 month-old C57BL/6J mice. Anesthesia: 1.4% isoflurane for two hours.
WS635 Treatment for isoflurane-induced cognitive impairment experiment. WS635 was dissolved in 10% DMSO plus corn oil. Each mouse received 26.4 mg/kg WS635 or same volume of vehicle (10% DMSO plus corn oil) at 30 minutes before the anesthesia. Then, the mice were tested in Fear Conditioning System at 48 hours and 7 days after the anesthesia.
WS635 Treatment. […]

stimulated Jurkat cells = conditions: compared with cyclosporine; cited from earlier work
[6] = tested on: anesthesia/surgery-induced delirium-like behavior in mice; experiment: Y Maze Test after anesthesia/surgery; type: in vivo; conditions: 40 mg/kg IP 30 minutes before anesthesia/surgery
Source text: as §1, §2, §3
Y Maze Test. Specifically, the Y maze, made of gray polyvinylene, will be placed in a quiet and illuminated room. […]

P-glycoprotein = P-glycoprotein (Homo sapiens, UniProt P08183); conditions: cited from earlier work
[7] = tested on: anesthesia/surgery-induced delirium-like behavior in mice; experiment: Open Field Test after anesthesia/surgery; type: in vivo; conditions: 40 mg/kg IP 30 minutes before anesthesia/surgery
Source text: as §1, §2, §3
Open Field Test. Specifically, the mouse will be gently placed in the center of an open field chamber (40×40×40 centimeters) under dim light and will be allowed to move freely for 5 minutes. The movement parameters of the mouse will be monitored and analyzed via a video camera connected to the Any-Maze animal tracking system software (Stoelting Co., Wood Dale, IL). The total distance moved (meters), the time (seconds) spent in the center of the open field, the freezing time (seconds) and the latency (the time in seconds for the mice to reach to the location at the first attempt) to the center of the open field will be recorded and analyzed. The floor of the open field will be cleaned with 70% ethanol solution between each test. […]

[8] = tested on: stimulated human peripheral blood mononuclear cells; conditions: compared with cyclosporine; cited from earlier work
cytochrome P450 1A2 = conditions: metabolic studies; cited from earlier work
calcineurin = conditions: at concentrations up to 2 μM; cited from earlier work
cytochrome P450 3A4 = conditions: metabolic studies; cited from earlier work

Sequence of P-glycoprotein (P08183 whole entry): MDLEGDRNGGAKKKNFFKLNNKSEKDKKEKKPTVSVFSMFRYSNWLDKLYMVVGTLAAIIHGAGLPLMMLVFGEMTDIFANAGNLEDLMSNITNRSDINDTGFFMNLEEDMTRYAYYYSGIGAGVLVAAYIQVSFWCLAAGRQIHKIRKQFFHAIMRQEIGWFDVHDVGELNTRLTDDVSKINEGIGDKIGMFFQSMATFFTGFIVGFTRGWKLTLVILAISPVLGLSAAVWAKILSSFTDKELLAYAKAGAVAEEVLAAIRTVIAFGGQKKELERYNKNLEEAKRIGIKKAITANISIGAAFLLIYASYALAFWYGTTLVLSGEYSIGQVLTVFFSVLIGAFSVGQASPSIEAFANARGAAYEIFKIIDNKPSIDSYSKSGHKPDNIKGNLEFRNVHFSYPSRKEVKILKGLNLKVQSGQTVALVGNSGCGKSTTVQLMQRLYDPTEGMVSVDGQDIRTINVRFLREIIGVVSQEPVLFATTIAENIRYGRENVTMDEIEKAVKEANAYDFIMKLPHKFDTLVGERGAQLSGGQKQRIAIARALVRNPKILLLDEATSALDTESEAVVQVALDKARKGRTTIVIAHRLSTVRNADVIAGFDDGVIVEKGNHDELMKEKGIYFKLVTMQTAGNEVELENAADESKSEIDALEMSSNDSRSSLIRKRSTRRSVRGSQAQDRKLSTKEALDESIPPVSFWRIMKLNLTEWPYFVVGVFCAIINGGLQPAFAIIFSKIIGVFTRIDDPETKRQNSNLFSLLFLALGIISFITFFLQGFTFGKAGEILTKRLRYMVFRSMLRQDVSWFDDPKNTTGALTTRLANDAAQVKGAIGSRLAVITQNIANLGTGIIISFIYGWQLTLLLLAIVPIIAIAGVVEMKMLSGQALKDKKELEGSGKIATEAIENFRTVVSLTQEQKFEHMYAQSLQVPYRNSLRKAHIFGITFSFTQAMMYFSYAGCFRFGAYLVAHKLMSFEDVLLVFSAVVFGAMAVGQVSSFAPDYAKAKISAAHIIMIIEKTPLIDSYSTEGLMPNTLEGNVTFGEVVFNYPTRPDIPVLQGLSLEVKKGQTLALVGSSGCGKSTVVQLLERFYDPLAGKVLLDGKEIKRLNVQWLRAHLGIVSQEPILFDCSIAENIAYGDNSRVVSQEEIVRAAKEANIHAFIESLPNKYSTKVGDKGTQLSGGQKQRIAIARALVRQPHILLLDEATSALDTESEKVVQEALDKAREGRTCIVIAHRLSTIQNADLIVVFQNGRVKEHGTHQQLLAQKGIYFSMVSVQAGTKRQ
Sequence of cyclophilin A (P62937 whole entry, species assumed): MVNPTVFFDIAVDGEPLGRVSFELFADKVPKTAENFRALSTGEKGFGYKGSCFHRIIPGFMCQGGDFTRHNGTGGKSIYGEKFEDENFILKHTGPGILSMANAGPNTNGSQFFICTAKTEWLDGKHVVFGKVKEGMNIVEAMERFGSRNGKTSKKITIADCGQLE

C/C=C/C[C@@H](C)[C@@H](O)[C@H]1C(=O)N[C@@H](CC)C(=O)N(C)[C@H](SCCN(C)C)C(=O)N(C)[C@@H](CC(C)(C)O)C(=O)N[C@@H](C(C)C)C(=O)N(C)[C@@H](CC(C)C)C(=O)N[C@@H](C)C(=O)N[C@H](C)C(=O)N(C)[C@@H](CC(C)C)C(=O)N(C)[C@@H](CC(C)C)C(=O)N(C)[C@@H](C(C)C)C(=O)N1C [WS635, (3 S,6 S,9S,12R,15 S,18 S,21 S,24S,27R,30S,33 S)-27-((2-(dimethylamino)ethyl)thio)-30-ethyl-33-((1R,2R,E)-1-hydroxy-2-methylhex-4-en-1-yl)-24-(2-hydroxy-2-methy 1propyl)-6,9,18-tri isobutyl-3,21-diisopropyl-1,4,7,10,12,15,19,25,28-nonamethyl-1,4,7,10,13,16,19,22,25,28,3 1-undecaazacyclotritriacontan-2,5,8,11,14,17,20,23,26,29,32-undecaone]
anesthesia/surgery-induced increase of latency to eat food in the buried food test ([1]; 40 mg/kg IP 30 minutes before anesthesia/surgery, 18-month-old C57BL/J6 female mice): can attenuate
anesthesia/surgery-induced changes in Buried Food Test, dose dependence ([1]; mice): dose-dependent manner
induction of cytochrome P450 2B6 (cytochrome P450 2B6): did not induce
inhibition of the peptidyl prolyl isomerase activity of cyclophilin A (cyclophilin A): nanomolar concentrations
antiviral activity in combination with alpha interferon 2b (hepatitis C virus (HCV)): synergistic antiviral activity
antiviral activity in combination with ribavirin (hepatitis C virus (HCV)): additive antiviral activity
anesthesia/surgery-induced changes of delirium-like behaviors ([2]; 40 mg/kg): more effectively attenuate
anesthesia/surgery-induced delirium-like behavior (composite Z score) ([2]; FIG. 15): able to attenuate
blood and liver concentrations of parent drug versus 50% effective dose in replicon assay ([3]; in vivo, po): exceeded the 50% effective dose
oral bioavailability ([3]; multiple animal species): orally bioavailable
suppression of hepatitis C virus (HCV) replication [4]: potent suppression
anesthesia/surgery-induced cognitive impairment [5]: significantly attenuate
inhibition of interleukin-2 secretion (stimulated Jurkat cells): weaker inhibitor of interleukin-2 secretion than cyclosporine
anesthesia/surgery-induced decrease of duration in the novel arm in the Y maze test [6]: can attenuate
anesthesia/surgery-induced decrease of number of entries in the novel arm in the Y maze test [6]: can attenuate
P-glycoprotein inhibition (P-glycoprotein): weak inhibitor
P-glycoprotein substrate (P-glycoprotein): poor substrate
anesthesia/surgery-induced change of freezing time in the open field test [7]: can attenuate
anesthesia/surgery-induced decrease of time spent in the center of the open field [7]: can attenuate
anesthesia/surgery-induced increase of latency to the center in the open field test [7]: can attenuate
inhibition of interleukin-2 secretion [8]: weaker inhibitor of interleukin-2 secretion than cyclosporine
induction of cytochrome P450 1A2 (cytochrome P450 1A2): did not induce
inhibition of calcineurin phosphatase activity (calcineurin): no detectable inhibition
induction of cytochrome P450 3A4 (cytochrome P450 3A4): did not induce
